Data: patent publication US6914045B2, “Glycopeptide antibiotics” (Wyeth Holdings Corporation, priority 2001, dated 2005)
In brackets after ≈: the same amount, converted by molar mass.

Tests used:
Enterococcus sp. = experiment: in vitro antibacterial evaluation, MIC by broth dilution; type: cell-based; conditions: broth dilution, 18 hours at 35° C.
Method in brief: (§1)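 Broth dilution per NCCLS M7-A2 in Mueller-Hinton II medium, inoculum 5×10^5 CFU/mL, antibiotic range 64-0.06 μg/mL. MIC taken as lowest concentration inhibiting growth; Gram-positive panel includes recent clinical isolates resistant to methicillin, penicillin and/or vancomycin.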

Staphylococcus sp. = experiment: as above; type: cell-based; conditions: broth dilution, 18 hours at 35° C.
Method in brief: as §1

Streptococcus sp. = experiment: as above; type: cell-based; conditions: broth dilution, 18 hours at 35° C.
Method in brief: as §1

[1] = test system: Staphylococcus aureus-SMITH (GC 4543); experiment: acute lethal infection in mice; type: in vivo; conditions: acute lethal infection, female CD-1 mice, intraperitoneal challenge, intravenous 30 min. after infection, 7 day survival
Method in brief: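 Protocol: bacteria suspended in trypticase soy broth or hog gastric mucin injected ip into female CD-1 mice at a level killing untreated controls in 24-48 hr; compound given iv in saline or 5% dextrose 30 min post-challenge; five mice per dose; ED50 derived from pooled 7 day survival of three runs.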

[2] = anatomic pathology (histopathology of heart and kidney) in mice; type: in vivo; conditions: CD-1 mice, 20 mg/kg intravenously daily for 9 days, necropsy day 10, microscopic histopathology
Protocol: Samples of tissues from necropsied mice were formalin-fixed, paraffin-embedded, sectioned, stained with hematoxylin and eosin, and examined microscopically. Histopathologic findings were recorded. These findings were subjectively graded on a scale corresponding to slight, mild, moderate, marked and severe as compared to untreated controls.

Escherichia coli = experiment: in vitro antibacterial evaluation, MIC by broth dilution; type: cell-based; conditions: 18 hours at 35° C.

Structure (SMILES): CC(c1ccccc1)C1NC(=O)CNC(=O)C(CO)NC(=O)C(CC2CNC(=N)N2C2OC(CO)C(O)C(O)C2O)NC(=O)C(CC2CNC(=N)N2)NC(=O)C(Cc2ccc(OC3OC(CO)C(OC4OC5COC6(OC5C(O)C4O)C4CC5CC(C4)CC6C5)C(O)C3O)cc2)NC1=O (stereo not drawn) [Example 219, Cyclo[3-(2-iminoimidazolidin-4-yl)alanyl-3-(3-hexopyranosyl-2-iminoimidazolidin-4-yl)-alanylserylglycyl-β-methylphenylalanyl-O-[4-O-[4,6-O-(2-adamantylidene)hexopyranosyl]-hexopyranosyl]tyrosyl]]
- MIC Enterococcus avium (GC 4558) (Enterococcus sp.): 4 µg/mL (≈ 2.87 µM)
- MIC Enterococcus faecalis (ATCC 29212) (Enterococcus sp.): 16 µg/mL (≈ 11.5 µM)
- MIC Enterococcus faecalis (GC 2242) (Enterococcus sp.): 8 µg/mL (≈ 5.73 µM)
- MIC Enterococcus faecalis (GC 2691) (Enterococcus sp.): 8 µg/mL (≈ 5.73 µM)
- MIC Enterococcus faecalis (GC 3059) (Enterococcus sp.): 16 µg/mL (≈ 11.5 µM)
- MIC Enterococcus faecalis (GC 4552) (Enterococcus sp.): 8 µg/mL (≈ 5.73 µM)
- MIC Enterococcus faecalis (GC 4553) (Enterococcus sp.): 8 µg/mL (≈ 5.73 µM)
- MIC Enterococcus faecalis (GC 4554) (Enterococcus sp.): 8 µg/mL (≈ 5.73 µM)
- MIC Enterococcus faecalis (GC 6189) (Enterococcus sp.): 8 µg/mL (≈ 5.73 µM)
- MIC Enterococcus faecium (GC 2243) (Enterococcus sp.): 8 µg/mL (≈ 5.73 µM)
- MIC Enterococcus faecium (GC 4556) (Enterococcus sp.): 8 µg/mL (≈ 5.73 µM)
- MIC Enterococcus faecium (GC 4557) (Enterococcus sp.): 4 µg/mL (≈ 2.87 µM)
- MIC Enterococcus faecalis (ATCC 29212) (Enterococcus sp.; inoculum 5×10^5 CFU/mL, strain ATCC 29212): 16 µg/mL (≈ 11.5 µM)
- MIC Enterococcus faecalis (GC 2242) (Enterococcus sp.; inoculum 5×10^5 CFU/mL, strain GC 2242): 8 µg/mL (≈ 5.73 µM)
- MIC Enterococcus faecium (GC 2243) (Enterococcus sp.; inoculum 5×10^5 CFU/mL, strain GC 2243): 8 µg/mL (≈ 5.73 µM)
- MIC Enterococcus faecalis (GC 2691) (Enterococcus sp.; inoculum 5×10^5 CFU/mL, strain GC 2691): 8 µg/mL (≈ 5.73 µM)
- MIC Enterococcus faecalis (GC 3059) (Enterococcus sp.; inoculum 5×10^5 CFU/mL, strain GC 3059): 16 µg/mL (≈ 11.5 µM)
- MIC Enterococcus faecalis (GC 4552) (Enterococcus sp.; inoculum 5×10^5 CFU/mL, strain GC 4552): 8 µg/mL (≈ 5.73 µM)
- MIC Enterococcus faecalis (GC 4553) (Enterococcus sp.; inoculum 5×10^5 CFU/mL, strain GC 4553): 8 µg/mL (≈ 5.73 µM)
- MIC Enterococcus faecalis (GC 4554) (Enterococcus sp.; inoculum 5×10^5 CFU/mL, strain GC 4554): 8 µg/mL (≈ 5.73 µM)
- MIC Enterococcus faecium (GC 4556) (Enterococcus sp.; inoculum 5×10^5 CFU/mL, strain GC 4556): 8 µg/mL (≈ 5.73 µM)
- MIC Enterococcus faecium (GC 4557) (Enterococcus sp.; inoculum 5×10^5 CFU/mL, strain GC 4557): 4 µg/mL (≈ 2.87 µM)
- MIC Enterococcus avium (GC 4558) (Enterococcus sp.; inoculum 5×10^5 CFU/mL, strain GC 4558): 4 µg/mL (≈ 2.87 µM)
- MIC Enterococcus faecalis (GC 6189) (Enterococcus sp.; inoculum 5×10^5 CFU/mL, strain GC 6189): 8 µg/mL (≈ 5.73 µM)
- MIC Staphylococcus aureus (ATCC 29213) (Staphylococcus sp.; strain ATCC 29213): 4 µg/mL (≈ 2.87 µM)
- MIC Staphylococcus aureus (GC 1131) (Staphylococcus sp.; strain GC 1131): 4 µg/mL (≈ 2.87 µM)
- MIC Staphylococcus aureus (GC 3051) (Staphylococcus sp.; strain GC 3051): 2 µg/mL (≈ 1.43 µM)
- MIC Staphylococcus aureus (GC 3053) (Staphylococcus sp.; strain GC 3053): 2 µg/mL (≈ 1.43 µM)
- MIC Staphylococcus aureus (GC 4541) (Staphylococcus sp.; strain GC 4541): 2 µg/mL (≈ 1.43 µM)
- MIC Staphylococcus aureus (GC 4542) (Staphylococcus sp.; strain GC 4542): 2 µg/mL (≈ 1.43 µM)
- MIC Staphylococcus aureus-SMITH (GC 4543) (Staphylococcus sp.; strain GC 4543): 2 µg/mL (≈ 1.43 µM)
- MIC Staphylococcus aureus (GC 4544) (Staphylococcus sp.; strain GC 4544): 8 µg/mL (≈ 5.73 µM)
- MIC Staphylococcus aureus (GC 4545) (Staphylococcus sp.; strain GC 4545): 2 µg/mL (≈ 1.43 µM)
- MIC Staphylococcus haemolyticus (GC 4546) (Staphylococcus sp.; strain GC 4546): 2 µg/mL (≈ 1.43 µM)
- MIC Coagulase Negative Staphylococcus (GC 4547) (Staphylococcus sp.; strain GC 4547): 2 µg/mL (≈ 1.43 µM)
- MIC Coagulase Negative Staphylococcus (GC 4548) (Staphylococcus sp.; strain GC 4548): 2 µg/mL (≈ 1.43 µM)
- MIC Coagulase Negative Staphylococcus (GC 4549) (Staphylococcus sp.; strain GC 4549): 2 µg/mL (≈ 1.43 µM)
- MIC Coagulase Negative Staphylococcus (GC 4551) (Staphylococcus sp.; strain GC 4551): 4 µg/mL (≈ 2.87 µM)
- MIC Coagulase Negative Staphylococcus (GC 6257) (Staphylococcus sp.; strain GC 6257): 1 µg/mL (≈ 0.717 µM)
- MIC Streptococcus agalactiae (GC 4564) (Streptococcus sp.): 2 µg/mL (≈ 1.43 µM)
- MIC Streptococcus pneumoniae (ATCC 6301) (Streptococcus sp.): 0.5 µg/mL (≈ 0.358 µM)
- MIC Streptococcus pneumoniae (GC 1894) (Streptococcus sp.): 1 µg/mL (≈ 0.717 µM)
- MIC Streptococcus pneumoniae (GC 4565) (Streptococcus sp.): 2 µg/mL (≈ 1.43 µM)
- MIC Streptococcus pyogenes (GC 4563) (Streptococcus sp.): 2 µg/mL (≈ 1.43 µM)
- MIC Streptococcus pneumoniae (ATCC 6301) (Streptococcus sp.; inoculum 5×10^5 CFU/mL, strain ATCC 6301): 0.5 µg/mL (≈ 0.358 µM)
- MIC Streptococcus pneumoniae (GC 1894) (Streptococcus sp.; inoculum 5×10^5 CFU/mL, strain GC 1894): 1 µg/mL (≈ 0.717 µM)
- MIC Streptococcus pyogenes (GC 4563) (Streptococcus sp.; inoculum 5×10^5 CFU/mL, strain GC 4563): 2 µg/mL (≈ 1.43 µM)
- MIC Streptococcus agalactiae (GC 4564) (Streptococcus sp.; inoculum 5×10^5 CFU/mL, strain GC 4564): 2 µg/mL (≈ 1.43 µM)
- MIC Streptococcus pneumoniae (GC 4565) (Streptococcus sp.; inoculum 5×10^5 CFU/mL, strain GC 4565): 2 µg/mL (≈ 1.43 µM)
- median effective dose (ED50), Staphylococcus aureus-SMITH (GC 4543) [1]: 0.5 mg/kg
- Anatomical Pathology (Day 10), Heart [2]: 0
- Anatomical Pathology (Day 10), Kidney [2]: +++
- MIC Escherichia coli (ATCC 25922) (Escherichia coli): 64 µg/mL (≈ 45.9 µM)
- MIC Escherichia coli (GC 4559) (Escherichia coli): 64 µg/mL (≈ 45.9 µM)
- MIC Escherichia coli (GC 4560) (Escherichia coli): 4 µg/mL (≈ 2.87 µM)
